ChEMBL document CHEMBL1255421, “In vitro fungicidal activities of echinocandins against Candida metapsilosis, C. orthopsilosis, and C. parapsilosis evaluated by time-kill studies” (2010)
≈ marks a conversion by molar mass, not a printed value. Calls of active or inactive are those of the source. The rule behind the calls is not given here. Numbered stars: 1 amine (or outer) side, 2 acyl side, 3 side chain; on linkers, the order of the positions; unused ones are H or OH. Bridge positions count the residues as written; N and C are the ends. Square brackets hold non-standard residues; d marks the D form. Peptide text beside a SMILES is read from it. * marks the point of attachment. hTyr(3S-OH,4S-OH,3'-OSO3H) = N[C@H](C(=O)O)[C@H](O)[C@@H](O)c1ccc(O)c(OS(=O)(=O)O)c1; pTerphenylCO(4''-OnC5H11) = CCCCCOc1ccc(-c2ccc(-c3ccc(C(=O)*)cc3)cc2)cc1; Orn(4R-OH,5R-OH) = O=C([C@H](C[C@@H](O)[C@@H](O)N[*:3])N[*:1])[*:2]; hTyr(3S-OH,4S-OH) = N[C@H](C(=O)O)[C@H](O)[C@@H](O)c1ccc(O)cc1; Pro(3S-OH,4S-Me) = C[C@H]1CN[C@H](C(=O)O)[C@H]1O; X1 = CCCCCOc1ccc(-c2cc(-c3ccc(C(=O)*)cc3)no2)cc1; Gln(3R-OH) = NC(=O)C[C@@H](O)[C@H](N)C(=O)O; Hyp = O=C(O)[C@@H]1C[C@@H](O)CN1

How the values were obtained:
[1] = test system: Candida orthopsilosis; experiment: Antifungal activity against Candida orthopsilosis clinical isolate bloodstream form assessed as time required for 99.9% reduction in fungal growth at 0.25 mg/L by time-kill assay; format: functional
[2] = test system: Candida orthopsilosis; experiment: Antifungal activity against Candida orthopsilosis clinical isolate bloodstream form assessed as time required for 99.9% reduction in fungal growth at 32 mg/L by time-kill assay; format: functional
[3] = test system: Candida metapsilosis; experiment: Antifungal activity against Candida metapsilosis clinical isolate bloodstream form assessed as time required for 50% reduction in fungal growth at 0.25 mg/L by time-kill assay; format: functional
[4] = test system: Candida metapsilosis; experiment: Antifungal activity against Candida metapsilosis clinical isolate bloodstream form assessed as time required for 50% reduction in fungal growth at 16 mg/L by time-kill assay; format: functional
[5] = test system: Candida metapsilosis; experiment: Antifungal activity against Candida metapsilosis clinical isolate bloodstream form assessed as time required for 90% reduction in fungal growth at 1 mg/L by time-kill assay; format: functional
[6] = test system: Candida metapsilosis; experiment: Antifungal activity against Candida metapsilosis clinical isolate bloodstream form assessed as time required for 90% reduction in fungal growth at 32 mg/L by time-kill assay; format: functional
[7] = test system: Candida metapsilosis; experiment: Antifungal activity against Candida metapsilosis clinical isolate bloodstream form assessed as time required for 99.9% reduction in fungal growth at 32 mg/L by time-kill assay; format: functional
[8] = test system: Candida parapsilosis; experiment: Antifungal activity against Candida parapsilosis clinical isolate bloodstream form assessed as time required for 50% reduction in fungal growth at 0.25 mg/L by time-kill assay; format: functional
[9] = test system: Candida parapsilosis; experiment: Antifungal activity against Candida parapsilosis clinical isolate bloodstream form assessed as time required for 50% reduction in fungal growth at 1 mg/L by time-kill assay; format: functional
[10] = test system: Candida parapsilosis; experiment: Antifungal activity against Candida parapsilosis clinical isolate bloodstream form assessed as time required for 50% reduction in fungal growth at 32 mg/L by time-kill assay; format: functional
[11] = test system: Candida parapsilosis; experiment: Antifungal activity against Candida parapsilosis clinical isolate bloodstream form assessed as time required for 90% reduction in fungal growth at 1 mg/L by time-kill assay; format: functional
[12] = test system: Candida parapsilosis; experiment: Antifungal activity against Candida parapsilosis clinical isolate bloodstream form assessed as time required for 90% reduction in fungal growth at 16 mg/L by time-kill assay; format: functional
[13] = test system: Candida parapsilosis; experiment: Antifungal activity against Candida parapsilosis clinical isolate bloodstream form assessed as time required for 99% reduction in fungal growth at 0.25 mg/L by time-kill assay; format: functional
[14] = test system: Candida parapsilosis; experiment: Antifungal activity against Candida parapsilosis clinical isolate bloodstream form assessed as time required for 99% reduction in fungal growth at 1 mg/L by time-kill assay; format: functional
[15] = test system: Candida parapsilosis; experiment: Antifungal activity against Candida parapsilosis clinical isolate bloodstream form assessed as time required for 99.9% reduction in fungal growth at 0.25 mg/L by time-kill assay; format: functional
[16] = test system: Candida parapsilosis; experiment: Antifungal activity against Candida parapsilosis clinical isolate bloodstream form assessed as time required for 99.9% reduction in fungal growth at 1 mg/L by time-kill assay; format: functional
[17] = test system: Candida parapsilosis; experiment: Antifungal activity against Candida parapsilosis clinical isolate bloodstream form assessed as time required for 99.9% reduction in fungal growth at 4 mg/L by time-kill assay; format: functional
[18] = test system: Candida parapsilosis; experiment: Antifungal activity against Candida parapsilosis clinical isolate bloodstream form assessed as time required for 99.9% reduction in fungal growth at 32 mg/L by time-kill assay; format: functional
[19] = test system: Candida metapsilosis; experiment: Antifungal activity against Candida metapsilosis clinical isolate bloodstream form assessed as time required for 99.9% reduction in fungal growth at 1 mg/L by time-kill assay; format: functional
[20] = test system: Candida orthopsilosis; experiment: Fungicidal activity against Candida orthopsilosis isolate CP-150 bloodstream form by CLSI method; format: functional; conditions: Lodderomyces orthopsilosis
[21] = test system: Candida orthopsilosis; experiment: Fungicidal activity against Candida orthopsilosis isolate ATC194 bloodstream form by CLSI method; format: functional; conditions: Lodderomyces orthopsilosis, isolate ATC-194
[22] = test system: Candida metapsilosis; experiment: Fungicidal activity against Candida metapsilosis isolate CP-133 bloodstream form by CLSI method; format: functional; conditions: Lodderomyces metapsilosis
[23] = test system: Candida parapsilosis; experiment: Fungicidal activity against Candida parapsilosis isolate CP-301 bloodstream form by CLSI method; format: functional; conditions: Lodderomyces parapsilosis
[24] = test system: Candida parapsilosis; experiment: Fungicidal activity against Candida parapsilosis isolate CP-302 bloodstream form by CLSI method; format: functional; conditions: Lodderomyces parapsilosis
[25] = test system: Candida parapsilosis; experiment: Fungicidal activity against Candida parapsilosis ATCC 22019 bloodstream form by CLSI method; format: functional; conditions: Lodderomyces parapsilosis
[26] = test system: Candida parapsilosis; experiment: Antifungal activity against Candida parapsilosis clinical isolate bloodstream form assessed as fungal count at 1 mg/L measured at 6 hrs by time-kill assay; format: functional
[27] = test system: Candida parapsilosis; experiment: Antifungal activity against Candida parapsilosis clinical isolate bloodstream form assessed as inhibition of fungal regrowth at 0.03 to 32 mg/L after 6 hrs by time-kill assay; format: functional, organism-based
[28] = test system: Candida orthopsilosis; experiment: Antifungal activity against Candida orthopsilosis clinical isolate bloodstream form assessed as induction of fungal killing rate at 0.03 to 32 mg/L measured at 6 hrs by time-kill assay; format: functional, organism-based
[29] = test system: Candida orthopsilosis; experiment: Antifungal activity against Candida orthopsilosis clinical isolate bloodstream form assessed as induction of maximal fungal death at 16 mg/L after 48 hrs by time-kill assay; format: functional, organism-based
[30] = test system: Candida orthopsilosis; experiment: Antifungal activity against Candida orthopsilosis clinical isolate bloodstream form assessed as time required for 50% reduction in fungal growth at 16 mg/L by time-kill assay; format: functional
[31] = test system: Candida orthopsilosis; experiment: Antifungal activity against Candida orthopsilosis clinical isolate bloodstream form assessed as time required for 90% reduction in fungal growth at 0.25 mg/L by time-kill assay; format: functional
[32] = test system: Candida orthopsilosis; experiment: Antifungal activity against Candida orthopsilosis clinical isolate bloodstream form assessed as time required for 90% reduction in fungal growth at 1 mg/L by time-kill assay; format: functional
[33] = test system: Candida orthopsilosis; experiment: Antifungal activity against Candida orthopsilosis clinical isolate bloodstream form assessed as time required for 90% reduction in fungal growth at 32 mg/L by time-kill assay; format: functional
[34] = test system: Candida orthopsilosis; experiment: Antifungal activity against Candida orthopsilosis clinical isolate bloodstream form assessed as time required for 99% reduction in fungal growth at 1 mg/L by time-kill assay; format: functional
[35] = test system: Candida orthopsilosis; experiment: Antifungal activity against Candida orthopsilosis clinical isolate bloodstream form assessed as time required for 99% reduction in fungal growth at 4 mg/L by time-kill assay; format: functional
[36] = test system: Candida orthopsilosis; experiment: Antifungal activity against Candida orthopsilosis clinical isolate bloodstream form assessed as time required for 99% reduction in fungal growth at 16 mg/L by time-kill assay; format: functional
[37] = test system: Candida parapsilosis; experiment: Antifungal activity against Candida parapsilosis clinical isolate bloodstream form assessed as fungal count at 4 mg/L measured at 6 hrs by time-kill assay; format: functional
[38] = test system: Candida orthopsilosis; experiment: Antifungal activity against Candida orthopsilosis clinical isolate bloodstream form assessed as induction of miniparadoxical effect at 32 mg/L after 48 hrs by time-kill assay; format: functional, organism-based
[39] = test system: Candida metapsilosis; experiment: Antifungal activity against Candida metapsilosis clinical isolate bloodstream form assessed as induction of miniparadoxical effect at 32 mg/L after 48 hrs by time-kill assay; format: functional, organism-based
[40] = test system: Candida orthopsilosis; experiment: Antifungal activity against Candida orthopsilosis clinical isolate bloodstream form assessed as induction of maximal fungal death at 1 mg/L after 48 hrs by time-kill assay; format: functional, organism-based
[41] = test system: Candida parapsilosis; experiment: Antifungal activity against Candida parapsilosis clinical isolate bloodstream form assessed as induction of maximal fungal death at 8 mg/L after 48 hrs by time-kill assay; format: functional, organism-based

Row | Structure (SMILES) | Time [1] [h] | Time [2] [h] | Time [3] [h] | Time [4] [h] | Time [5] [h] | Time [6] [h] | Time [7] [h] | Time [8] | Time [9] | Time [10] [h] | Time [11] | Time [12] [h] | Time [13] | Time [14] | Time [15] | Time [16] | Time [17] [h] | Time [18] [h] | Time [19] [h] | MIC [20] [µg/mL] | further results
1 | CCCCCOc1ccc(-c2cc(-c3ccc(C(=O)N[C@H]4C[C@@H](O)[C@@H](O)NC(=O)[C@@H]5[C@@H](O)[C@@H](C)CN5C(=O)[C@H]([C@H](O)CC(N)=O)NC(=O)[C@H]([C@H](O)[C@@H](O)c5ccc(O)c(OS(=O)(=O)O)c5)NC(=O)[C@@H]5C[C@@H](O)CN5C(=O)[C@H]([C@@H](C)O)NC4=O)cc3)no2)cc1 [MICAFUNGIN] (X1-[Orn(4R-OH,5R-OH)]T[Hyp][hTyr(3S-OH,4S-OH,3'-OSO3H)][Gln(3R-OH)][Pro(3S-OH,4S-Me)]; lactam 1-C) | >48 | 15.34 | >48 | 1.45 | 10.15 | 4.76 | 14.29 | inactive | inactive | 6.16 | inactive | 31.55 | inactive | inactive | inactive | inactive | >48 | >48 | 30.46 | 0.25 (≈ 0.197 µM) | MIC [21]: 0.5 µg/mL (≈ 0.394 µM); MIC [22]: 0.12 µg/mL (≈ 0.0945 µM); MIC [23]: 1 µg/mL (≈ 0.787 µM); MIC [24]: 1 µg/mL (≈ 0.787 µM); MIC [25]: 0.5 µg/mL (≈ 0.394 µM); log10cfu [26]: 1.22 /ml; inhibition [27]: inactive; Activity [28]: inactive; Activity [29]: Active; Time [30]: 1.38 h; Time [31]: >48 h; Time [32]: 10.13 h; Time [33]: 5.11 h; Time [34]: 20.26 h; Time [35]: 11.06 h; Time [36]: 9.17 h
2 | CCCCCOc1ccc(-c2ccc(-c3ccc(C(=O)N[C@H]4C[C@@H](O)[C@@H](O)NC(=O)[C@@H]5[C@@H](O)[C@@H](C)CN5C(=O)[C@H]([C@@H](C)O)NC(=O)[C@H]([C@H](O)[C@@H](O)c5ccc(O)cc5)NC(=O)[C@@H]5C[C@@H](O)CN5C(=O)[C@H]([C@@H](C)O)NC4=O)cc3)cc2)cc1 [ANIDULAFUNGIN] ({pTerphenylCO(4''-OnC5H11)}-[Orn(4R-OH,5R-OH)]T[Hyp][hTyr(3S-OH,4S-OH)]T[Pro(3S-OH,4S-Me)]; lactam 1-C) | >48 | 14.72 | 7.74 | 1.51 | 5.22 | 4.69 | 14.06 | inactive | inactive | 4.2 | inactive | 26.04 | inactive | inactive | inactive | inactive | >48 | 41.84 | 15.67 | 0.25 (≈ 0.219 µM) | MIC [21]: 0.12 µg/mL (≈ 0.105 µM); MIC [22]: 0.06 µg/mL (≈ 0.0526 µM); MIC [23]: 1 µg/mL (≈ 0.877 µM); MIC [24]: 1 µg/mL (≈ 0.877 µM); MIC [25]: 1 µg/mL (≈ 0.877 µM); log10cfu [37]: 1.48 /ml; Activity [38]: Active; Activity [39]: inactive; inhibition [27]: inactive; Activity [28]: inactive; Activity [40]: Active; Activity [41]: Active; Time [30]: 1.88 h; Time [31]: >48 h; Time [32]: 21.14 h; Time [33]: 4.91 h; Time [34]: 42.28 h; Time [35]: 18.17 h; Time [36]: 12.48 h
